Results published in ChEMBL document CHEMBL4610081, “Anti-inflammatory Metabolites from Chaetomium nigricolor” (J Nat Prod, 2020).
pIC50: −log10 of the molar value. Active and inactive are the calls of the source. The rule behind the calls is not given here.

Columns and labels:
RAW264.7 [1] = assay: Antiinflammatory activity against mouse RAW264.7 cells assessed as LPS-induced INOS mRNA expression at 10 uM preincubated for 3 hrs followed by LPS-stimulation and measured after 24 hrs by RT-PCR analysis (reference value: 8.2); assay type: functional
RAW264.7 [2] = assay: Trans-suppression of NFkappaB in mouse RAW264.7 cells assessed as LPS-induced nuclear-p65 level at 5 uM preincubated for 3 hrs followed by LPS-stimulation and measured after 1 hr by Western blot analysis (reference value: 3.3); assay type: cell-based
RAW264.7 [3] = assay: Trans-suppression of NFkappaB in mouse RAW264.7 cells assessed as LPS-induced IKB-apha degradation at 5 uM preincubated for 3 hrs followed by LPS-stimulation and measured after 1 hr by Western blot analysis (reference value: 0.29); assay type: cell-based
RAW264.7 [4] = assay: Inhibition of LPS-induced JNK phosphorylation in mouse RAW264.7 cell at 5 uM preincubated for 3 hrs followed by LPS-stimulation and measured after 1 hr by Western blot analysis (reference value: 8.88); assay type: cell-based
RAW264.7 [5] = assay: Inhibition of LPS-induced ERK phosphorylation in mouse RAW264.7 cell at 2.5 uM preincubated for 3 hrs followed by LPS-stimulation and measured after 1 hr by Western blot analysis (reference value: 6.92); assay type: cell-based
RAW264.7 [6] = assay: Trans-suppression of NFkappaB in mouse RAW264.7 cells assessed as LPS-induced IKB-apha degradation at 10 uM preincubated for 3 hrs followed by LPS-stimulation and measured after 1 hr by Western blot analysis (reference value: 0.29); assay type: cell-based
RAW264.7 [7] = assay: Trans-suppression of NFkappaB in mouse RAW264.7 cells assessed as LPS-induced nuclear-p50 level at 5 uM preincubated for 3 hrs followed by LPS-stimulation and measured after 1 hr by Western blot analysis (reference value: 3.2); assay type: cell-based
RAW264.7 [8] = assay: Trans-suppression of NFkappaB in mouse RAW264.7 cells assessed as LPS-induced IKB-apha degradation at 2.5 uM preincubated for 3 hrs followed by LPS-stimulation and measured after 1 hr by Western blot analysis (reference value: 0.29); assay type: cell-based
RAW264.7 [9] = assay: Cytotoxicity against mouse RAW264.7 cells assessed as reduction cell viability at 20 uM by MTT assay; assay type: cell-based; details: raw264.7, 20 µM
RAW264.7 [10] = assay: Inhibition of LPS-induced JNK protein expression in mouse RAW264.7 cell at 2.5 uM preincubated for 3 hrs followed by LPS-stimulation and measured after 1 hr by Western blot analysis (reference value: 1.21); assay type: functional
RAW264.7 [11] = assay: Inhibition of LPS-induced ERK phosphorylation in mouse RAW264.7 cell at 5 uM preincubated for 3 hrs followed by LPS-stimulation and measured after 1 hr by Western blot analysis (reference value: 6.92); assay type: cell-based
RAW264.7 [12] = assay: Antiinflammatory activity against mouse RAW264.7 cells assessed as reduction in LPS-induced IL6 mRNA expression preincubated for 3 hrs followed by LPS-stimulation and measured after 12 hrs by RT-PCR analysis; assay type: functional, cell-based
RAW264.7 [13] = assay: Inhibition of LPS-induced ERK protein expression in mouse RAW264.7 cell at 2.5 uM preincubated for 3 hrs followed by LPS-stimulation and measured after 1 hr by Western blot analysis (reference value: 1.13); assay type: functional
RAW264.7 [14] = assay: Inhibition of LPS-induced p38 MAPK protein expression in mouse RAW264.7 cell at 2.5 uM preincubated for 3 hrs followed by LPS-stimulation and measured after 1 hr by Western blot analysis (reference value: 1.1); assay type: functional
RAW264.7 [15] = assay: Antiinflammatory activity against mouse RAW264.7 cells assessed as LPS-induced INOS mRNA expression at 5 uM preincubated for 3 hrs followed by LPS-stimulation and measured after 24 hrs by RT-PCR analysis (reference value: 8.2); assay type: functional
RAW264.7 [16] = assay: Antiinflammatory activity against mouse RAW264.7 cells assessed as inhibition of LPS-induced NO production preincubated for 3 hrs followed by LPS-stimulation and measured after 24 hrs by Griess reagent based assay; assay type: functional, cell-based
RAW264.7 [17] = assay: Antiinflammatory activity against mouse RAW264.7 cells assessed as reduction in LPS-induced IL-1beta mRNA expression preincubated for 3 hrs followed by LPS-stimulation and measured after 12 hrs by RT-PCR analysis; assay type: functional, cell-based
[18] = target: MAP kinase p38 (Mus musculus) (UniProt P47811+O08911+Q9WUI1+Q9Z1B7); assay: Inhibition of LPS-induced p38 MAPK phosphorylation in mouse RAW264.7 cell at 10 uM preincubated for 3 hrs followed by LPS-stimulation and measured after 1 hr by Western blot analysis (reference value: 5.59); assay type: cell-based
RAW264.7 [19] = assay: Trans-suppression of NFkappaB in mouse RAW264.7 cells assessed as LPS-induced IKB-apha phosphorylation at 10 uM preincubated for 3 hrs followed by LPS-stimulation and measured after 1 hr by Western blot analysis (reference value: 6.04); assay type: cell-based
RAW264.7 [20] = assay: Inhibition of LPS-induced JNK phosphorylation in mouse RAW264.7 cell at 10 uM preincubated for 3 hrs followed by LPS-stimulation and measured after 1 hr by Western blot analysis (reference value: 8.88); assay type: cell-based
RAW264.7 [21] = assay: Antiinflammatory activity against mouse RAW264.7 cells assessed as reduction in LPS-induced IL-12 mRNA expression preincubated for 3 hrs followed by LPS-stimulation and measured after 12 hrs by RT-PCR analysis; assay type: functional, cell-based
RAW264.7 [22] = assay: Trans-suppression of NFkappaB in mouse RAW264.7 cells assessed as reduction in LPS-induced DNA binding at 2.5 to 10 uM preincubated for 3 hrs followed by LPS-stimulation and measured after 1 hr by TransAM assay; assay type: cell-based
RAW264.7 [23] = assay: Antiinflammatory activity against mouse RAW264.7 cells assessed as LPS-induced COX-2 mRNA expression at 2.5 uM preincubated for 3 hrs followed by LPS-stimulation and measured after 24 hrs by RT-PCR analysis (reference value: 14.39); assay type: functional
RAW264.7 [24] = assay: Trans-suppression of NFkappaB in mouse RAW264.7 cells assessed as LPS-induced cytosol-p65 level at 5 uM preincubated for 3 hrs followed by LPS-stimulation and measured after 1 hr by Western blot analysis (reference value: 0.09); assay type: cell-based
RAW264.7 [25] = assay: Antiinflammatory activity against mouse RAW264.7 cells assessed as reduction in LPS-induced TNF-alpha mRNA expression preincubated for 3 hrs followed by LPS-stimulation and measured after 12 hrs by RT-PCR analysis; assay type: functional, cell-based

Which “fold change (FC)” value (RAW264.7 [1]) does the source give for `COc1cc(OC)c2c(O)c3c(=O)cc(C)oc3c(-c3c(O)cc4cc(O)c5c(=O)cc(C)oc5c4c3OC)c2c1` (atropisomer aS) [ASPERPYRONE A] here?
Its value is 1.03.

And the fold change (FC) (RAW264.7 [2])?
The fold change (FC) was 2.57.

And the fold change (FC) (RAW264.7 [3])?
Its fold change (FC) is 0.68.

And the fold change (FC) (RAW264.7 [4])?
Its fold change (FC) is 4.02.

And the fold change (FC) (RAW264.7 [5])?
Its fold change (FC) is 7.21.

And the fold change (FC) (RAW264.7 [6])?
The fold change (FC) was 0.81.

And the fold change (FC) (RAW264.7 [7])?
Its fold change (FC) is 1.28.

And the fold change (FC) (RAW264.7 [8])?
Its fold change (FC) is 0.31.

And the Activity (RAW264.7 [9])?
The Activity was “Non-Toxic”.

And the “fold change (FC)” value (RAW264.7 [10])?
Its value is 1.12.

And the fold change (FC) (RAW264.7 [11])?
Its fold change (FC) is 7.31.

And the Activity (RAW264.7 [12])?
The Activity was “Dose-dependent effect”.

And the “fold change (FC)” value (RAW264.7 [13])?
Its value is 1.08.

And the “fold change (FC)” value (RAW264.7 [14])?
The value was 1.12.

And the “fold change (FC)” value (RAW264.7 [15])?
Its value is 2.62.

And the Activity (RAW264.7 [16])?
Its Activity is “Dose-dependent effect”.

And the pIC50 (RAW264.7 [16])?
The pIC50 was 5.07.

What about the Activity (RAW264.7 [17]) of the same compound?
The Activity was “Dose-dependent effect”.

What about the fold change (FC) [18] of the same compound?
The fold change (FC) was 5.66.

And the fold change (FC) (RAW264.7 [19])?
The fold change (FC) was 2.3.

And the fold change (FC) (RAW264.7 [20])?
Its fold change (FC) is 3.08.

And the Activity (RAW264.7 [21])?
The Activity was “Dose-dependent effect”.

And the Activity (RAW264.7 [22])?
The Activity was “Active”.

And the “fold change (FC)” value (RAW264.7 [23])?
Its value is 12.92.

What about the fold change (FC) (RAW264.7 [24]) of the same compound?
Its fold change (FC) is 0.78.

And the Activity (RAW264.7 [25])?
Its Activity is “Dose-dependent effect”.
